# Target: T1, full-length SARM1 (FL-SARM1) (Homo sapiens, UniProt Q6SZW1)
# T1 sequence (Q6SZW1 28-724): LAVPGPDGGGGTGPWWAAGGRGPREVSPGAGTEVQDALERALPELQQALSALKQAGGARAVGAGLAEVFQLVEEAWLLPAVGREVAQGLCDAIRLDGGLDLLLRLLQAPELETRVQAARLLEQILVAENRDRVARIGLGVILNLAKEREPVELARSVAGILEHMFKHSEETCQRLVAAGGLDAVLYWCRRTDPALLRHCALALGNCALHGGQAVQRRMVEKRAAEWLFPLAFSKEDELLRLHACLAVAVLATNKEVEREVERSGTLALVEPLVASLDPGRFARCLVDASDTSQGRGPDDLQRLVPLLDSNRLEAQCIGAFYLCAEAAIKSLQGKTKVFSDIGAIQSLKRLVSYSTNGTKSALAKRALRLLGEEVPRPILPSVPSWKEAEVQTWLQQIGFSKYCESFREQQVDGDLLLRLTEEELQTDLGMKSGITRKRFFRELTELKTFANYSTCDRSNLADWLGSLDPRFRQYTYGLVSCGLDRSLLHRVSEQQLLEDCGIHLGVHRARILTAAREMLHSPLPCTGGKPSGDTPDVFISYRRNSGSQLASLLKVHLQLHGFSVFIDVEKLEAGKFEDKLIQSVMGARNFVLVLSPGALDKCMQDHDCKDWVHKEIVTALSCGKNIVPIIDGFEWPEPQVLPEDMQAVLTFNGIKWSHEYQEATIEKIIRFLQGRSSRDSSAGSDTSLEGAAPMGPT
# Test: FL-SARM1 cellular lysate assay (NAD/NADH-Glo readout of remaining NAD+)
# Settings: SARM1 cellular lysate from transfected HEK293T cells, NAD+ and NMN, 11 point curve
Compound,IC50 (Activity (μM)) [µM],IC50 (Activity) [µM]
"Cc1nnc([C@]23C[C@H](C)C[C@H](C2)N3C(=O)Nc2cc(-c3cncc(F)c3)c(C(F)(F)F)cc2F)o1 (single isomer, unassigned) [Example 135, cis-N-[2-fluoro-5-(5-fluoro-3-pyridinyl)-4-(trifluoromethyl)phenyl]-3-methyl-1-(5-methyl-1,3,4-oxadiazol-2-yl)-6-azabicyclo[3.1.1]heptane-6-carboxamide]",0.03,0.0001 to 1
"Cc1ccc(NC(=O)N2C3CC2CC(F)(F)C3)cc1-c1cncc(F)c1 [Example 37, 3,3-difluoro-N-(3-(5-fluoropyridin-3-yl)-4-methylphenyl)-6-azabicyclo[3.1.1]heptane-6-carboxamide]",0.5,0.0001 to 1
"CCO[C@@H]1C[C@@H]2C[C@H](C1)N2C(=O)Nc1ccc(C)c(-c2cncc(F)c2)c1 [Example 2, cis-3-ethoxy-N-(3-(5-fluoropyridin-3-yl)-4-methylphenyl)-6-azabicyclo[3.1.1]heptane-6-carboxamide]",3.3,1 to 10
"Cc1ccc(NC(=O)N2C3C[C@@H](C#N)C[C@@H]2C3)cc1-c1cncc(F)c1 [Example 36, trans-3-cyano-N-(3-(5-fluoropyridin-3-yl)-4-methylphenyl)-6-azabicyclo[3.1.1]heptane-6-carboxamide]",0.8,0.0001 to 1
"Cc1ccc(NC(=O)N2C3CC[C@@H](C(=O)N(C)C)[C@@H]2C3)cc1-c1cncc(F)c1 [Example 34, trans-N^6-(3-(5-fluoropyridin-3-yl)-4-methylphenyl)-N^2,N^2-dimethyl-6-azabicyclo[3.1.1]heptane-2,6-dicarboxamide]",47.3,> 10
"Cc1ccc(NC(=O)C2C3CC2CN(CC(F)(F)F)C3)cc1-c1cncc(F)c1 (stereo not shown) [Example 101, N-[3-(5-fluoropyridin-3-yl)-4-methylphenyl]-3-(2,2,2-trifluoroethyl)-3-azabicyclo[3.1.1]heptane-6-carboxamide]",0.8,0.0001 to 1
"C[C@@H]1CC2C[C@@H](C1)N2C(=O)Nc1ccc(Cl)c(-c2cncc(F)c2)c1 (single isomer, unassigned) [Example 79, trans-N-(4-chloro-3-(5-fluoropyridin-3-yl)phenyl)-3-methyl-6-azabicyclo[3.1.1]heptane-6-carboxamide]",0.1,0.0001 to 1
"Cc1ccc(NC(=O)[C@@H]2CC2(F)F)cc1-c1cccnc1C [Example 112, (1S)-2,2-difluoro-N-[4-methyl-3-(2-methylpyridin-3-yl)phenyl]cyclopropane-1-carboxamide]",33.3,> 10
"Cc1nnc([C@@]23C[C@@H](C)C[C@@H](C2)N3C(=O)Nc2ccc(Cl)c(-c3cncc(F)c3)c2)o1 (single isomer, unassigned) [Example 134, cis-N-[4-chloro-3-(5-fluoro-3-pyridinyl)phenyl]-3-methyl-1-(5-methyl-1,3,4-oxadiazol-2-yl)-6-azabicyclo[3.1.1]heptane-6-carboxamide]",0.02,0.0001 to 1
Cc1ccc(NC(=O)N2CCOc3cccc(C#N)c3C2)cc1-c1cncc(F)c1 [Example 81],5.6,1 to 10
"Cc1ccc(NC(=O)N2C[C@@H](C)CC[C@H]2C)cc1-c1cncc(F)c1 (racemic) [Example 8, cis-N-(3-(5-fluoropyridin-3-yl)-4-methylphenyl)-2,5-dimethylpiperidine-1-carboxamide]",2.6,1 to 10
"Cc1nnc([C@]23C[C@H](C)C[C@H](C2)N3C(=O)Nc2ccc(C(F)(F)F)c(-c3cncc(F)c3)c2)o1 (single isomer, unassigned) [Example 120, cis-N-(3-(5-fluoropyridin-3-yl)-4-(trifluoromethyl)phenyl)-3-methyl-1-(5-methyl-1,3,4-oxadiazol-2-yl)-6-azabicyclo[3.1.1]heptane-6-carboxamide]",> 50,> 10
"Cc1ccncc1-c1cc(NC(=O)N2C3CCCC2C3)ccc1C [Example 91, N-(4-methyl-3-(4-methylpyridin-3-yl)phenyl)-6-azabicyclo[3.1.1]heptane-6-carboxamide]",0.4,0.0001 to 1
"CO[C@H]1CC2C[C@H](C1)N2C(=O)Nc1cc(-c2cncc(F)c2)c(C)cc1F [Example 3, trans-N-(2-fluoro-5-(5-fluoropyridin-3-yl)-4-methylphenyl)-3-methoxy-6-azabicyclo[3.1.1]heptane-6-carboxamide]",2.5,1 to 10
"C[C@@H]1CC2C[C@@H](C1)N2C(=O)Nc1ccc(C#N)c(-c2cncc(F)c2)c1 (single isomer, unassigned) [Example 77, trans-N-(4-cyano-3-(5-fluoropyridin-3-yl)phenyl)-3-methyl-6-azabicyclo[3.1.1]heptane-6-carboxamide]",0.4,0.0001 to 1
"Cc1cc(F)c(NC(=O)N2C3C[C@H](C)C[C@@H]2C3)cc1-c1cncc(F)c1 [Example 41, cis-N-(2-fluoro-5-(5-fluoropyridin-3-yl)-4-methylphenyl)-3-methyl-6-azabicyclo[3.1.1]heptane-6-carboxamide]",0.04,0.0001 to 1
"Cc1ccc(NC(=O)N2CC3CCC2C3)cc1-c1cncc(F)c1 (stereo not shown) [Example 18, N-(3-(5-fluoropyridin-3-yl)-4-methylphenyl)-2-azabicyclo[2.2.1]heptane-2-carboxamide]",1,1 to 10
"Cc1ccc(NC(=O)N2C3CCCC2C3)cc1-c1cncc(OC(F)(F)F)c1 [Example 35, N-(4-methyl-3-(5-(trifluoromethoxy)pyridin-3-yl)phenyl)-6-azabicyclo[3.1.1]heptane-6-carboxamide]",0.1,0.0001 to 1
"Cc1ccc(NC(=O)OC2CCC2)cc1-c1cncc(F)c1 [Example 126, cyclobutyl (3-(5-fluoropyridin-3-yl)-4-methylphenyl)carbamate]",20.7,> 10
"COC[C@H]1C2CCC[C@H]1N2C(=O)Nc1ccc(C)c(-c2cncc(F)c2)c1 [Example 44, N-trans-(3-(5-fluoropyridin-3-yl)-4-methylphenyl)-7-(methoxymethyl)-6-azabicyclo[3.1.1]heptane-6-carboxamide]",17.2,> 10
"Cc1ccc(NC(=O)N2C3C[C@H](OC(F)F)C[C@H]2C3)cc1-c1cncc(F)c1 [Example 56, trans-3-(difluoromethoxy)-N-(3-(5-fluoropyridin-3-yl)-4-methylphenyl)-6-azabicyclo[3.1.1]heptane-6-carboxamide]",0.09,0.0001 to 1
"C[C@@H]1CC2C[C@H](C1)N2C(=O)Nc1ccc(C(F)(F)F)c(-c2cncc(F)c2)c1 (single isomer, unassigned) [Example 53, cis-N-(3-(5-fluoropyridin-3-yl)-4-(trifluoromethyl)phenyl)-3-methyl-6-azabicyclo[3.1.1]heptane-6-carboxamide]",0.06,0.0001 to 1
"O=C(Nc1ccc(CC(F)F)c(-c2cncc(F)c2)c1)N1C2CCCC1C2 [Example 23, N-(4-(2,2-difluoroethyl)-3-(5-fluoropyridin-3-yl)phenyl)-6-azabicyclo[3.1.1]heptane-6-carboxamide]",0.9,0.0001 to 1
Cc1ccc(NC(=O)N2C3CCCC2C3)cc1-c1cnnnc1 [Example 130],15.5,> 10
"Cc1ccc(NC(=O)CC2CCC2)cc1-c1cncnc1 [Example 118, 2-cyclobutyl-N-(4-methyl-3-pyrimidin-5-ylphenyl)acetamide]",13.9,> 10
"Cc1ccc(NC(=O)N2C3C[C@@H](C(F)F)C[C@@H]2C3)cc1-c1cncc(F)c1 [Example 4, trans-3-(difluoromethyl)-N-(3-(5-fluoropyridin-3-yl)-4-methylphenyl)-6-azabicyclo[3.1.1]heptane-6-carboxamide]",0.1,0.0001 to 1
"Cc1ccc(NC(=O)N2[C@@H]3C[C@H](C)C[C@H]2C3)cc1-c1cncc(F)c1 [Example 84, cis-N-(3-(5-fluoropyridin-3-yl)-4-methylphenyl)-3-methyl-6-azabicyclo[3.1.1]heptane-6-carboxamide]",0.007,0.0001 to 1
"Cc1nnc([C@]23C[C@H](C)C[C@H](C2)N3C(=O)Nc2cc(-c3cncc(F)c3)c(Cl)cc2F)o1 (single isomer, unassigned) [Example 132, cis-N-(4-chloro-2-fluoro-5-(5-fluoropyridin-3-yl)phenyl)-3-methyl-1-(5-methyl-1,3,4-oxadiazol-2-yl)-6-azabicyclo[3.1.1]heptane-6-carboxamide]",0.05,0.0001 to 1
"Cc1ccc(NC(=O)N2C3C[C@H](C)C[C@@H]2C3)cc1-c1cccnc1 [Example 17, cis-3-methyl-N-(4-methyl-3-(pyridin-3-yl)phenyl)-6-azabicyclo[3.1.1]heptane-6-carboxamide]",0.008,0.0001 to 1

# From US20250361234A1 (NICO THERAPEUTICS, INC., priority 2022, published 2025)
